Key:
Assay type in all cases: in vivo
[1] = test system: Spodoptera littoralis (Eqyptian Cotton Leaf Worm); assay: Example B4: Spodoptera littoralis, sprayed cotton leaf discs, L1 larvae; settings: foliar, 72 h, application rate 200 ppm, 3 days after infestation, versus untreated, read-out: control (at least one of mortality, anti-feedant effect, growth inhibition)
Description: Example B4: Spodoptera littoralis (Eqyptian Cotton Leaf Worm)
Cotton leaf discs were placed onto agar in 24-well microtiter plates and sprayed with aqueous test solutions prepared from 10'000 ppm DMSO stock solutions. After drying the leaf discs were infested with five L1 larvae. The samples were assessed for mortality, anti-feeding effect, and growth inhibition in comparison to untreated samples 3 days after infestation. Control of Spodoptera littoralis by a test sample is given when at least one of the categories mortality, anti-feedant effect, and growth inhibition is higher than the untreated sample.

[2] = test system: Diabrotica Balteata (Corn Root Worm); assay: Example B2: Diabrotica balteata, sprayed maize sprouts on agar, L2 larvae; settings: 96 h, application rate 200 ppm, 4 days after infestation, versus untreated, read-out: effect in at least one of the two categories (mortality or growth inhibition)
Description: Example B2: Diabrotica Balteata (Corn Root Worm)
Maize sprouts placed onto an agar layer in 24-well microtiter plates were treated with aqueous test solutions prepared from 10'000 ppm DMSO stock solutions by spraying. After drying, the plates were infested with L2 larvae (6 to 10 per well). The samples were assessed for mortality and growth inhibition in comparison to untreated samples 4 days after infestation.

[3] = test system: Chilo suppressalis (Striped Rice Stemborer); assay: Example B1: Chilo suppressalis, artificial diet in 24-well plates, L2 larvae; settings: 144 h, application rate 200 ppm, 6 days after infestation, versus untreated, read-out: control (at least one of mortality, anti-feedant effect, growth inhibition)
Description: Example B1: Chilo suppressalis (Striped Rice Stemborer)
24-well microtiter plates with artificial diet were treated with aqueous test solutions prepared from 10'000 ppm DMSO stock solutions by pipetting. After drying, the plates were infested with L2 larvae (6-8 per well). The samples were assessed for mortality, anti-feeding effect, and growth inhibition in comparison to untreated samples 6 days after infestation. Control of Chilo suppressalis by a test sample is given when at least one of the categories mortality, anti-feedant effect, and growth inhibition is higher than the untreated sample.

[4] = test system: Plutella xylostella (Diamond Back Moth); assay: Example B3: Plutella xylostella, artificial diet in 24-well plates, eggs; settings: 192 h, application rate 200 ppm, 8 days after infestation, versus untreated, read-out: effect in at least one of the two categories (mortality or growth inhibition)
Description: Example B3: Plutella xylostella (Diamond Back Moth)
24-well microtiter plates with artificial diet were treated with aqueous test solutions prepared from 10'000 ppm DMSO stock solutions by pipetting. After drying, Plutella eggs were pipetted through a plastic stencil onto a gel blotting paper and the plate was closed with it. The samples were assessed for mortality and growth inhibition in comparison to untreated samples 8 days after infestation.

[5] = test system: Frankliniella occidentalis (Western Flower Thrips); assay: Example B5: Frankliniella occidentalis, feeding/contact activity, sunflower leaf discs; settings: foliar, 168 h, application rate 200 ppm, population of mixed ages, 7 days after infestation
Description: Example B5: Frankliniella occidentalis (Western Flower Thrips). Feedinq/Contact Activity
Sunflower leaf discs were placed on agar in 24-well microtiter plates and sprayed with aqueous test solutions prepared from 10'000 DMSO stock solutions. After drying the leaf discs were infested with a Frankliniella population of mixed ages. The samples were assessed for mortality 7 days after infestation.

[6] = test system: Myzus persicae (Green Peach Aphid); assay: Example B7: Myzus persicae, intrinsic activity, sucrose solution under Parafilm; settings: 120 h, test rate 12 ppm, 5 days after infestation
From the text: Example B7: Myzus persicae (Green Peach Aphid). Intrinsic Activity
Test compounds prepared from 10'000 ppm DMSO stock solutions were applied by pipette into 24-well microtiter plates and mixed with sucrose solution. The plates were closed with a stretched Parafilm. A plastic stencil with 24 holes was placed onto the plate and infested pea seedlings were placed directly on the Parafilm. The infested plate was closed with a gel blotting paper and another plastic stencil and then turned upside down. The samples were assessed for mortality 5 days after infestation.

C[C@H](NC1=N[S@@](C)(=O)=Nc2c(Br)cc(Br)cc21)c1ncnn1-c1ccc(C#N)cn1 (single isomer, unassigned) [P6]
≥ 80%: percent control (mortality, anti-feedant effect or growth inhibition) at 200 ppm [1] | percent effect (mortality or growth inhibition) at 200 ppm [2] | percent control (mortality, anti-feedant effect or growth inhibition) at 200 ppm [3] | percent effect (mortality or growth inhibition) at 200 ppm [4]

C[C@H](NC1=N[S@](C)(=O)=Nc2c(Br)cc(Br)cc21)c1ncnn1-c1ccc(C#N)cn1 (single isomer, unassigned) [P7]
≥ 80%: percent control (mortality, anti-feedant effect or growth inhibition) at 200 ppm [1] | percent effect (mortality or growth inhibition) at 200 ppm [2] | percent control (mortality, anti-feedant effect or growth inhibition) at 200 ppm [3] | percent effect (mortality or growth inhibition) at 200 ppm [4]

C[C@H](NC1=N[S@](C)(=O)=Nc2ccc(Br)cc21)c1ncnn1-c1ccc(C#N)cn1 (single isomer, unassigned) [P8]
≥ 80%: percent control (mortality, anti-feedant effect or growth inhibition) at 200 ppm [1] | percent control (mortality, anti-feedant effect or growth inhibition) at 200 ppm [3] | percent effect (mortality or growth inhibition) at 200 ppm [4]

C[C@H](NC1=N[S@@](C)(=O)=Nc2ccc(Br)cc21)c1ncnn1-c1ccc(C#N)cn1 (single isomer, unassigned) [P9]
≥ 80%: percent control (mortality, anti-feedant effect or growth inhibition) at 200 ppm [1] | percent effect (mortality or growth inhibition) at 200 ppm [2] | percent control (mortality, anti-feedant effect or growth inhibition) at 200 ppm [3] | percent effect (mortality or growth inhibition) at 200 ppm [4]

CC(NC1=CS(C)(=O)=Nc2c1cc(C(F)(F)F)cc2C(F)(F)F)c1ncnn1-c1ncccn1 (stereo not shown) [P2, 3-methyl-3-oxo-N-[1-(2-pyrimidin-2-yl-1,2,4-triazol-3-yl)ethyl]-8,10-bis(trifluoromethyl)-3λ^6-thia-2-azabicyclo[4.4.0]deca-1(6),2,4,7,9-pentaen-5-amine]
≥ 80%: percent control (mortality, anti-feedant effect or growth inhibition) at 200 ppm [1] | percent effect (mortality or growth inhibition) at 200 ppm [2] | percent control (mortality, anti-feedant effect or growth inhibition) at 200 ppm [3] | percent effect (mortality or growth inhibition) at 200 ppm [4]

CC(NC1=CS(C)(=O)=Nc2c1cc(C(F)(F)F)cc2C(F)(F)F)c1ncnn1-c1ccc(C#N)cn1 (stereo not shown) [P3]
≥ 80%: percent control (mortality, anti-feedant effect or growth inhibition) at 200 ppm [1] | percent control (mortality, anti-feedant effect or growth inhibition) at 200 ppm [3]

CC(NC1=NS(C)(=O)=Nc2c(Br)cc(Br)cc21)c1ncnn1-c1ccc(C#N)cn1 (stereo not shown) [P4, 6-[5-[1-[(8,10-dibromo-3-methyl-3-oxo-3λ^6-thia-2,4-diazabicyclo[4.4.0]deca-1(10),2,4,6,8-pentaen-5-yl)amino]ethyl]-1,2,4-triazol-1-yl]pyridine-3-carbonitrile]
≥ 80%: percent control (mortality, anti-feedant effect or growth inhibition) at 200 ppm [1] | percent effect (mortality or growth inhibition) at 200 ppm [2] | percent control (mortality, anti-feedant effect or growth inhibition) at 200 ppm [3] | percent effect (mortality or growth inhibition) at 200 ppm [4]

C[C@H](NC1=NS(C)(=O)=Nc2c(Br)cc(Br)cc21)c1ncnn1-c1ccc(C#N)cn1 (stereo partly drawn) [P5, 6-[5-[(1S)-1-[(8,10-dibromo-3-methyl-3-oxo-3λ^6-thia-2,4-diazabicyclo[4.4.0]deca-1(10),2,4,6,8-pentaen-5-yl)amino]ethyl]-1,2,4-triazol-1-yl]pyridine-3-carbonitrile]
≥ 80%: percent control (mortality, anti-feedant effect or growth inhibition) at 200 ppm [1] | percent effect (mortality or growth inhibition) at 200 ppm [2] | percent control (mortality, anti-feedant effect or growth inhibition) at 200 ppm [3] | percent effect (mortality or growth inhibition) at 200 ppm [4]

C[C@H](NC1=NS(C)(=O)=Nc2c(Br)cc(Br)cc21)c1ncnn1-c1cnccn1 (stereo partly drawn) [P11, 8,10-dibromo-3-methyl-3-oxo-N-[(1S)-1-(2-pyrazin-2-yl-1,2,4-triazol-3-yl)ethyl]-3λ^6-thia-2,4-diazabicyclo[4.4.0]deca-1(6),2,4,7,9-pentaen-5-amine]
≥ 80%: percent control (mortality, anti-feedant effect or growth inhibition) at 200 ppm [1] | percent effect (mortality or growth inhibition) at 200 ppm [2] | percent control (mortality, anti-feedant effect or growth inhibition) at 200 ppm [3] | percent effect (mortality or growth inhibition) at 200 ppm [4]

C[C@H](NC1=NS(C)(=O)=Nc2c(Cl)cc(C(F)(F)F)cc21)c1nccnc1-c1cnccn1 (stereo partly drawn) [P12, 10-chloro-3-methyl-3-oxo-N-[(1S)-1-(3-pyrazin-2-ylpyrazin-2-yl)ethyl]-8-(trifluoromethyl)-3λ^6-thia-2,4-diazabicyclo[4.4.0]deca-1(6),2,4,7,9-pentaen-5-amine]
≥ 80%: percent control (mortality, anti-feedant effect or growth inhibition) at 200 ppm [1] | percent effect (mortality or growth inhibition) at 200 ppm [2] | percent effect (mortality or growth inhibition) at 200 ppm [4]

C[C@H](NC1=NS(C)(=O)=Nc2c(Cl)cc(C(F)(F)F)cc21)c1ncnn1-c1ncccn1 (stereo partly drawn) [P13, 10-chloro-3-methyl-3-oxo-N-[(1S)-1-(2-pyrimidin-2-yl-1,2,4-triazol-3-yl)ethyl]-8-(trifluoromethyl)-3λ^6-thia-2,4-diazabicyclo[4.4.0]deca-1(6),2,4,7,9-pentaen-5-amine]
≥ 80%: percent control (mortality, anti-feedant effect or growth inhibition) at 200 ppm [1] | percent effect (mortality or growth inhibition) at 200 ppm [2] | percent effect (mortality or growth inhibition) at 200 ppm [4] | mortality at 200 ppm [5] | mortality at 12 ppm [6]

C[C@H](NC1=NS(C)(=O)=Nc2c(Cl)cc(C(F)(F)F)cc21)c1ncnn1-c1ccc(C#N)cn1 (stereo partly shown) [P15]
≥ 80%: percent control (mortality, anti-feedant effect or growth inhibition) at 200 ppm [1] | percent effect (mortality or growth inhibition) at 200 ppm [2] | percent effect (mortality or growth inhibition) at 200 ppm [4]

C[C@H](NC1=NS(C)(=O)=Nc2c1cc(Cl)cc2C(F)(F)F)c1ncnn1-c1ccc(C#N)cn1 (stereo partly shown) [P16]
≥ 80%: percent control (mortality, anti-feedant effect or growth inhibition) at 200 ppm [1] | percent effect (mortality or growth inhibition) at 200 ppm [2] | percent control (mortality, anti-feedant effect or growth inhibition) at 200 ppm [3] | percent effect (mortality or growth inhibition) at 200 ppm [4] | mortality at 12 ppm [6]

C[C@H](NC1=NS(C)(=O)=Nc2c1cc(Cl)cc2C(F)(F)F)c1ncnn1-c1cnccn1 (stereo partly drawn) [P17, 8-chloro-3-methyl-3-oxo-N-[(1S)-1-(2-pyrazin-2-yl-1,2,4-triazol-3-yl)ethyl]-10-(trifluoromethyl)-3λ^6-thia-2,4-diazabicyclo[4.4.0]deca-1(6),2,4,7,9-pentaen-5-amine]
≥ 80%: percent control (mortality, anti-feedant effect or growth inhibition) at 200 ppm [1] | percent effect (mortality or growth inhibition) at 200 ppm [2] | percent effect (mortality or growth inhibition) at 200 ppm [4]

C[C@H](NC1=NS(C)(=O)=Nc2c1cc(Cl)cc2C(F)(F)F)c1ncnn1-c1ncccn1 (stereo partly drawn) [P18, 8-chloro-3-methyl-3-oxo-N-[(1S)-1-(2-pyrimidin-2-yl-1,2,4-triazol-3-yl)ethyl]-10-(trifluoromethyl)-3λ^6-thia-2,4-diazabicyclo[4.4.0]deca-1(6),2,4,7,9-pentaen-5-amine]
≥ 80%: percent control (mortality, anti-feedant effect or growth inhibition) at 200 ppm [1] | percent effect (mortality or growth inhibition) at 200 ppm [2] | percent control (mortality, anti-feedant effect or growth inhibition) at 200 ppm [3] | percent effect (mortality or growth inhibition) at 200 ppm [4] | mortality at 12 ppm [6]

C[C@H](NC1=NS(C)(=O)=Nc2c1cc(Cl)cc2C(F)(F)F)c1nccnc1-c1cnccn1 (stereo partly drawn) [P19, 8-chloro-3-methyl-3-oxo-N-[(1S)-1-(3-pyrazin-2-ylpyrazin-2-yl)ethyl]-10-(trifluoromethyl)-3λ^6-thia-2,4-diazabicyclo[4.4.0]deca-1(6),2,4,7,9-pentaen-5-amine]
≥ 80%: percent control (mortality, anti-feedant effect or growth inhibition) at 200 ppm [1] | percent effect (mortality or growth inhibition) at 200 ppm [2] | percent control (mortality, anti-feedant effect or growth inhibition) at 200 ppm [3] | percent effect (mortality or growth inhibition) at 200 ppm [4]

C[C@@H](c1ncnn1-c1cnccn1)N(C)C1=NS(C)(=O)=Nc2c1cc(Cl)cc2C(F)(F)F (stereo partly drawn) [P20, 8-chloro-N,3-dimethyl-3-oxo-N-[(1S)-1-(2-pyrazin-2-yl-1,2,4-triazol-3-yl)ethyl]-10-(trifluoromethyl)-3λ^6-thia-2,4-diazabicyclo[4.4.0]deca-1(6),2,4,7,9-pentaen-5-amine]
≥ 80%: percent control (mortality, anti-feedant effect or growth inhibition) at 200 ppm [1] | percent effect (mortality or growth inhibition) at 200 ppm [2] | percent effect (mortality or growth inhibition) at 200 ppm [4]

Reference: US20240327397A1, “Pesticidally Active Fused Bicyclic Heteroaromatic Compounds” (SYNGENTA CROP PROTECTION AG, priority 2021, published 2024)
